Where two headings read alike, the source gives them in different places. Marks after values point to notes of the source that are not given here.
Assays:
[1] = literature; cited from earlier work
[2] = Evaluation of pharmacokinetic profile: plasma and brain concentrations after oral dosing; assay type: in vivo, Wistar rats; settings: rat, 10 mg/kg po; for concentration at 1 h / concentration at 2 h: male, Wistar; for concentration at 1 h: 1 h post-dosing; for concentration at 2 h: 2 h post-dosing
Experimental: Adult male Wistar rats were kept under controlled environmental conditions (12 h light/dark cycle, room temperature 22±1° C. and humidity 50±5%, food and tap water ad libitum). On the day before the experiment, the animals were fasted. In experiments designed to evaluate the pharmacokinetic profile of Examples 56, 66, 199 and 232, rats (n=4) were administered orally (p.o.) with examples 56, 66, 199 and 232 (10 mg/kg/4 mL; vehicle: 40% kleptose) and plasma and brain samples were collected from anaesthetized animals at 1 and 2 h post-dosing. Animals were anaesthetized by intraperitoneal administration of sodium pentobarbital (60 mg/kg). Blood was collected from cardiac punction into heparinised tubes and kept on ice until centrifugation at 1,500 g for 15 min at 4° C. Plasma and brain samples were stored at less than −20° C. until analysis.
After thawing, 200 μL of acetonitrile 0.1% formic acid was added to 100 μL of plasma. The samples were vortexed and centrifuged for 10 min at 10 000 g. Supernatant was filtered and injected into a mass spectrometer.
After thawing and weighing, water was added to the brain to give a tissue concentration of […]. The samples were then homogenized using a Heidolph DIAX 900 mixer and transferred to plastic tubes. Following centrifugation at 10 000 g for 20 min, supernatant was taken and treated as described for plasma.

[3] = biological target: T1, Dopamine beta hydroxylase (Homo sapiens, UniProt P09172); test: Dopamine beta hydroxylase activity in human plasma; assay type: biochemical; settings: for Plasma (1 μM), activity in % of control: inhibitor 1 μM
T1 construct: 125 μl of plasma; tissue Instituto Português do Sangue Transplantação; host or cells: human plasma from healthy donors
T1 sequence (P09172 40-617 limits assumed): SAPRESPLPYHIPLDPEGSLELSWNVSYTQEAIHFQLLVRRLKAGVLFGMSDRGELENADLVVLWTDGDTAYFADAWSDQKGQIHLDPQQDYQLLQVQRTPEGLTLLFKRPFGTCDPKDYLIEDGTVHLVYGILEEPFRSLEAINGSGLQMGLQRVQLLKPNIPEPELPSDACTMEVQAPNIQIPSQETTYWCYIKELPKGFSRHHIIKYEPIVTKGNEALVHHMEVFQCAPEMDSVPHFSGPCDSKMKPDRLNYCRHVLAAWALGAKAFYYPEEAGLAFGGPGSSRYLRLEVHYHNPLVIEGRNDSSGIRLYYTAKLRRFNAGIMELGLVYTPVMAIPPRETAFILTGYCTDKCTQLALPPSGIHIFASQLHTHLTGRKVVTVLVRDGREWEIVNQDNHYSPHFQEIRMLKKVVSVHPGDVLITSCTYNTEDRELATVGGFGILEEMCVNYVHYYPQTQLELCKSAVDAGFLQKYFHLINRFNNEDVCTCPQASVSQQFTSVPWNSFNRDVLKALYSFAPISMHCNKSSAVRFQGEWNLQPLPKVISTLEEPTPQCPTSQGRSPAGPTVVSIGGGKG
Summary of the method: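 Healthy-donor human plasma pre-incubated 10 min at 37° C with compound at final 10, 100 or 1000 nM in pH 5.0 acetate buffer with ascorbate, fumarate, pargyline, N-ethylmaleimide, catalase and copper sulfate. Tyramine substrate then added for 45 min; octopamine formed was isolated by SCX cartridge, periodate-converted and read at 330 nm; activity given as % control.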

DβH [4] = biological target: T2, DβH (Homo sapiens, UniProt P09172); test: DβH inhibition assay in SK-N-SH cellular homogenates (tyramine to octopamine); assay type: biochemical; settings: SK-N-SH cell homogenate
T2 construct: cellular homogenate (75 μg total protein); host or cells: SK-N-SH cells (homogenate)
T2 sequence (P09172 1-617): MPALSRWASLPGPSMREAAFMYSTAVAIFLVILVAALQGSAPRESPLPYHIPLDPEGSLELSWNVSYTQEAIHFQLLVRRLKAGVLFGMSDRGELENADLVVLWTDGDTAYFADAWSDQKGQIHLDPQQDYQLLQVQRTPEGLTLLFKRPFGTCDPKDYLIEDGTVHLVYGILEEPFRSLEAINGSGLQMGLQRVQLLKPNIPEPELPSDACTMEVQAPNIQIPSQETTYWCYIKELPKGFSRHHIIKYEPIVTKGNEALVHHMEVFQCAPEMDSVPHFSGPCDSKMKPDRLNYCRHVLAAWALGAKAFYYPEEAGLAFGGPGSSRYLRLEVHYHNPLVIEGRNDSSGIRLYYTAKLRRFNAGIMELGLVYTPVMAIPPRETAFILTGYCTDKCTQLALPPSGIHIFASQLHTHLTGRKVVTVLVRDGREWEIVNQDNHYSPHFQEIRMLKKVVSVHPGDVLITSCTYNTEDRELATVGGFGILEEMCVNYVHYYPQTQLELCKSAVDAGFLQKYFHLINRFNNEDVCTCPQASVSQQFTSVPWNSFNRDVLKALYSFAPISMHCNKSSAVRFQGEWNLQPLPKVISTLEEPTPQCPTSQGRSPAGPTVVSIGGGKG

DβH [5] = settings: Stanley et al., Br. J. Pharmacol. 1997; cited from earlier work
[6] = brain, read-out: Cbr (ng/g) at 1 h
[7] = brain, read-out: Cbr (ng/g) at 2 h
[8] = plasma, read-out: Cpl (ng/mL) at 1 h
[9] = plasma, read-out: Cpl (ng/mL) at 2 h

concentration at 1 h [2, 6]	concentration at 2 h [2, 7]	concentration at 1 h [2, 8]	concentration at 2 h [2, 9]	peripheral selectivity (exposure in plasma compared to brain) [2]	Plasma (0.1 μM), activity in % of control ([3]; inhibitor 0.1 μM)	Structure (SMILES)	toxic side effects [1]	further results
						CCCCc1ccc(C(=O)O)nc1 [fusaric acid]	toxic side effects	
0 ng/g	0 ng/g	779 ng/mL	429 ng/mL	peripherally selective	52.3 % of control	O=C(Cc1[nH]c(=S)n2c1[C@@H]1C[C@]1(c1cc(Cl)ccc1F)C2)N1CCOCC1 [Example 66, 2-((5aS,6aR)-5a-(5-chloro-2-fluorophenyl)-3-thioxo-2,3,5,5a,6,6a-hexahydrocyclopropa[3,4]pyrrolo[1,2-c]imidazol-1-yl)-1-morpholinoethan-1-one]		Plasma (1 μM), activity in % of control [3]: 6.4 % of control
						CCN(CC)C(=S)SSC(=S)N(CC)CC [disulfiram]	toxic side effects	
						CCN(CC)C(=S)S [diethyldithiocarbamate]	toxic side effects	
45 ng/g	0 ng/g	1640 ng/mL	777 ng/mL	peripherally selective	0.6 % of control	Cl.Fc1cc(F)c(F)c([C@H]2Cc3c(CCN4CCOCC4)[nH]c(=S)n3C2)c1F [Example 199, (R)-1-(2-morpholinoethyl)-6-(2,3,5,6-tetrafluorophenyl)-2,5,6,7-tetrahydro-3H-pyrrolo[1,2-c]imidazole-3-thione Hydrochloride]		Plasma (0.01 μM), activity in % of control ([3]; inhibitor 0.01 μM): 27.4 % of control; Plasma (0.01 μM), activity in % of control, re-test (asterisked) ([3]; inhibitor 0.01 μM, re-tested under the same experimental conditions, asterisked data believed to be correct): 119.3* % of control; Plasma (0.1 μM), activity in % of control, re-test (asterisked) ([3]; inhibitor 0.1 μM, re-tested under the same experimental conditions, asterisked data believed to be correct): 84.9* % of control
						NCc1c[nH]c(=S)n1[C@H]1CCc2c(F)cc(F)cc2C1 [nepicastat]		IC50 (DβH [5]): 9 nM; crossing of the BBB [1]: cross the BBB
24 ng/g	46 ng/g	1710 ng/mL	1310 ng/mL	peripherally selective	6.4 % of control	Cn1c(CC(=O)N[C@@H]2CCOC2)c2n(c1=S)C[C@H](c1c(F)ccc(Br)c1F)C2 [Example 232, 2-((S)-6-(3-bromo-2,6-difluorophenyl)-2-methyl-3-thioxo-2,5,6,7-tetrahydro-3H-pyrrolo[1,2-c]imidazol-1-yl)-N—((R)-tetrahydrofuran-3-yl)acetamide]		Plasma (0.01 μM), activity in % of control ([3]; inhibitor 0.01 μM): 48.8 % of control

Structure (SMILES)	concentration at 1 h [2, 6]	concentration at 2 h [2, 7]	concentration at 1 h [2, 8]	concentration at 2 h [2, 9]	peripheral selectivity (exposure in plasma compared to brain) [2]	Plasma (0.1 μM), activity in % of control ([3]; inhibitor 0.1 μM)	toxic side effects [1]	further results
NC(=O)Cc1[nH]c(=S)n2c1[C@@H]1C[C@]1(c1cc(Cl)ccc1F)C2 [Example 56]	20 ng/g	21 ng/g	1500 ng/mL	1130 ng/mL	peripherally selective	38.5 % of control		SKNSH (0.1 μM), activity in % of control (DβH [4]; inhibitor 0.1 μM): 45.6 % of control; SKNSH (1 μM), activity in % of control (DβH [4]; inhibitor 1 μM): 5.2 % of control; Plasma (1 μM), activity in % of control [3]: 5.5 % of control

Source: patent publication US11434242B2, “Dopamine-b-hydroxylase inhibitors” (BIAL-PORTELA & Cª, S.A., priority 2017, dated 2022)
